Reference: patent US20250320205A1, “STAT6 DEGRADERS” (Gilead Sciences, Inc., priority 2024, published 2025)

Legend:
STAT6 = target: T1, STAT6 (Homo sapiens, UniProt P42226); experiment: STAT6 Degrader Assay (HiBiT based, HeLa LgBiT clone 4.14 cells); assay type: cell-based; settings: geometric mean across assay runs and compound batches; DC50 provided for test compounds with >80% Emax; read-out: STAT6 degradation DC50
T1 construct: These cells express endogenous STAT6; host or cells: HeLa LgBiT clone 4.14 (CRISPR knock-in of HiBiT into the endogenous STAT6 gene)
T1 sequence (P42226 1-847): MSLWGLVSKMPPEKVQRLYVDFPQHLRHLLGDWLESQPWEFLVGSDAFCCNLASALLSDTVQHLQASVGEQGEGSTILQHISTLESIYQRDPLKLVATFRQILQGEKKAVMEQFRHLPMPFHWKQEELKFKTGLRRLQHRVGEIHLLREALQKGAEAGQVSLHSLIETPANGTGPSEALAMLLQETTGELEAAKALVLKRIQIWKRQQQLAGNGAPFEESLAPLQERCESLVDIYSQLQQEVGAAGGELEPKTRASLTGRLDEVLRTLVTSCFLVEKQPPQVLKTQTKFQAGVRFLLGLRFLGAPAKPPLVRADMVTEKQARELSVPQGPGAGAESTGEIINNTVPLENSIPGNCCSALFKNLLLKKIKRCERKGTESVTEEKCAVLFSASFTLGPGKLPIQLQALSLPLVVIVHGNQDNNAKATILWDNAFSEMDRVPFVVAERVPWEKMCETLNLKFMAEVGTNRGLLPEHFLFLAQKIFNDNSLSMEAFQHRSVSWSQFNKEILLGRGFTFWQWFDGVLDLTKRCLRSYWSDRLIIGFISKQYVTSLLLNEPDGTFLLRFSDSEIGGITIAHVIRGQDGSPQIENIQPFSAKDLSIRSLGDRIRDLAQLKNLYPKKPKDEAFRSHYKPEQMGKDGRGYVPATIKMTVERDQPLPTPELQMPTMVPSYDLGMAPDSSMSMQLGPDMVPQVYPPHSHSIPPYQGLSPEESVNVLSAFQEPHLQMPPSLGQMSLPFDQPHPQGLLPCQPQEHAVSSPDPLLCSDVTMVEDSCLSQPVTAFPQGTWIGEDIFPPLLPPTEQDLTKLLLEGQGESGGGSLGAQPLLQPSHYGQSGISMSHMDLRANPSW
How it was run: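 DC50 (nM) comes from NanoBiT luminescence of HiBiT-knock-in STAT6 in HeLa LgBiT clone 4.14 cells, treated 4-24 h at 37° C. Luminescence reflects non-degraded STAT6, with 50 μM terfenadine wells taken as full degradation.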

[1] = test system: Eotaxin-3 (CCL26) release; experiment: Human Whole Blood Eotaxin-3 Assay (IL-4 stimulated); assay type: cell-based; settings: Homo sapiens; geometric mean across assay runs and compound batches; EC50 provided for test compounds with >80% Emax
Description: This was a human whole blood assay using recombinant human Interleukin 4 to stimulate the blood and measuring the ability of the test compounds to inhibit eotaxin-3 release. The biological activities of the test compounds have been tested in human whole blood stimulated with IL-4 measuring Eotaxin-3 release. The test compounds were added to 384 well clear flat-bottom plate in a 4-fold serial dilution in triplicates using a liquid handler. Human whole blood stabilized in lithium-heparin tubes was added in a volume of 65 μL per well, resulting in a final DMSO concentration of 0.5%. The plate is incubated for 2 h at 37° C. under 5% CO2/95% air. Subsequently, 5 μL of recombinant human IL-4 (R&D Systems, cat #204-ILB) was added to the wells to a final concentration of 400 pM. The plate was incubated for 48 h at 37° C. under 5% CO2/95% air. The plate was spun down for 10 minutes at 500×g and 20 μL supernatant was harvested and transferred to a 384 well v-bottom plate using a liquid handler and stored at −20° C. until further analysis. 10 μL supernatant was used to measure the level of Eotaxin-3 (CCL26) using Human Eotaxin-3 MSD kit from Mesocsale (Cat #K251UEK-4). The assay was performed according to the manufacture instructions.

Compound | DC50 (STAT6) [nM] | EC50 [1] [nM]
C[C@@H](c1cc2c(-n3ccc4c(c3=O)CCN4)ccnc2n1C)N1CCC(c2ccc(C(=O)N3CCC(CN4CCN(c5ccc(N[C@@H]6CCC(=O)NC6=O)cc5F)CC4)CC3)cc2)CC1 (single isomer, unassigned) [Example 2c35] | 7.5 | 18.7
C[C@@H](c1cc2c(-n3ccc4c(c3=O)CCN4)ccnc2n1C)N1CCC(c2ccc(C(=O)N3CCC(CN4CCN(c5ccc(N[C@H]6CCC(=O)NC6=O)cc5F)CC4)CC3)cc2)CC1 (single isomer, unassigned) [Example 2c36] | 5.7 | 22.1
CNc1cc(=O)n(-c2ccnc3c2cc([C@H](C)N2CC=C(c4c(C)cc(C(=O)N5CCn6nc(CN7CCC(c8ccc(N[C@@H]9CCC(=O)NC9=O)cc8F)CC7)cc6C5)cc4F)CC2)n3C)cc1F (single isomer, unassigned) [Example 2g5] | 0.5 | 2.7
CNc1cc(=O)n(-c2ccnc3c2cc([C@H](C)N2CC=C(c4c(C)cc(C(=O)N5CCn6nc(CN7CCC(c8ccc(N[C@H]9CCC(=O)NC9=O)cc8F)CC7)cc6C5)cc4F)CC2)n3C)cc1F (single isomer, unassigned) [Example 2g6] | 0.3 | 1.5
CNc1cc(=O)n(-c2ccnc3c2cc([C@H](C)N2CC=C(c4c(C)cc(C(=O)N5CCn6nc(CN7CCC(c8ccc(N[C@H]9CCC(=O)NC9=O)c(OC)c8)CC7)cc6C5)cc4F)CC2)n3C)cc1F (single isomer, unassigned) [Example 2g11] | 1 | 1.7
CNc1cc(=O)n(-c2ccnc3c2cc([C@H](C)N2CC=C(c4c(C)cc(C(=O)N5CCn6nc(CN7CCC(c8ccc(N[C@@H]9CCC(=O)NC9=O)c(OC)c8)CC7)cc6C5)cc4F)CC2)n3C)cc1F (single isomer, unassigned) [Example 2g12] | 0.7 | 0.5
CNc1cc(=O)n(-c2ccnc3c2cc(CN2CCC(c4c(F)cc(C(=O)N5CCC(CN6CCN(c7ccc(N[C@@H]8CCC(=O)NC8=O)cc7F)CC6)CC5)cc4F)CC2)n3C)cc1F (single isomer, unassigned) [Example 2g33] | 50.8 | 64.7
CNc1ccn(-c2ccnc3c2cc(CN2CCC(c4c(F)cc(C(=O)N5CCC(CN6CCN(c7ccc(N[C@@H]8CCC(=O)NC8=O)cc7F)CC6)CC5)cc4F)CC2)n3C)c(=O)c1 (single isomer, unassigned) [Example 2g57] | 9.3 | 50.3
CNc1ccn(-c2ccnc3c2cc(CN2CCC(c4c(F)cc(C(=O)N5CCC(CN6CCN(c7ccc(N[C@H]8CCC(=O)NC8=O)cc7F)CC6)CC5)cc4F)CC2)n3C)c(=O)c1 (single isomer, unassigned) [Example 2g58] | 10.4 | 196
CNc1ccn(-c2ccnc3c2cc([C@H](C)N2CC=C(c4c(C)cc(C(=O)N5CCC(CN6CCN(c7ccc(N[C@H]8CCC(=O)NC8=O)cc7F)C[C@@H]6C)CC5)cc4F)CC2)n3C)c(=O)c1 (single isomer, unassigned) [Example 2g98] | 6.9 | 16.7
CNc1ccn(-c2ccnc3c2cc(CN2CCC(c4c(F)cc(C(=O)N5CCn6nc(CN7CCC(c8ccc(NC9CCC(=O)NC9=O)cc8F)CC7)cc6C5)cc4F)CC2)n3C)c(=O)c1 (single isomer, unassigned) [Example 2g101] | 1 | 0.4
CNc1ccn(-c2ccnc3c2cc([C@H](C)N2CC=C(c4c(C)cc(C(=O)N5CCC(CN6CCN(c7cccc(C(=O)NC8CCC(=O)NC8=O)c7)CC6)CC5)cc4F)CC2)n3C)c(=O)c1 (stereo partly drawn) [Example 2g21, N-(2,6-dioxopiperidin-3-yl)-3-(4-((1-(3-fluoro-5-methyl-4-(1-((S)-1-(1-methyl-4-(4-(methylamino)-2-oxopyridin-1(2H)-yl)-1H-pyrrolo[2,3-b]pyridin-2-yl)ethyl)-1,2,3,6-tetrahydropyridin-4-yl)benzo-yl)piperidin-4-yl)methyl)-piperazin-1-yl)benzamide] |  | 36.4
Cc1cc(C(=O)N2CCC(CN3CCN(c4ccc(NC5CCC(=O)NC5=O)cc4F)CC3)CC2)cc(F)c1C1=CCN([C@@H](C)c2cc3c(-n4cc(F)c5c(c4=O)CCN5)ccnc3n2C)CC1 (stereo partly drawn) [Example 2g31, 3-((3-fluoro-4-(4-((1-(3-fluoro-4-(1-((S)-1-(4-(7-fluoro-4-oxo-1,2,3,4-tetra-hydro-5H-pyrrolo[3,2-c]pyridin-5-yl)-1-methyl-1H-pyrrolo[2,3-b]pyridin-2-yl)-ethyl)-1,2,3,6-tetrahydro-pyridin-4-yl)-5-methylbenzo-yl)-piperidin-4-yl)methyl)-piperazin-1-yl)phenyl)-amino)piperidine-2,6-dione] |  | 268
CNc1cc(=O)n(-c2ccnc3c2cc([C@H](C)N2CC=C(c4c(C)cc(C(=O)N5CCn6nc(CN7CCC(c8cc(OC)c(NC9CCC(=O)NC9=O)cc8F)CC7)cc6C5)cc4F)CC2)n3C)cc1F (stereo partly drawn) [Example 2g50, 3-((5-fluoro-4-(1-((5-(3-fluoro-4-(1-((S)-1-(4-(5-fluoro-4-(methylamino)-2-oxopyridin-1(2H)-yl)-1-meth-yl-1H-pyrrolo[2,3-b]pyridin-2-yl)ethyl)-1,2,3,6-tetrahydro-hydropyridin-4-yl)-5-methyl-benzoyl)-4,5,6,7-tetrahydro-pyrazolo[1,5-a]pyrazin-2-yl)-methyl)piperidin-4-yl)-2-methoxyphenyl)amino)piperi-dine-2,6-dione] |  | 121
CNc1cc(=O)n(-c2ccnc3c2cc([C@@H](C)N2CCC(c4c(F)cc(C(=O)N5CCn6nc(CN7CCC(c8ccc(NC9CCC(=O)NC9=O)cc8F)CC7)cc6C5)cc4F)CC2)n3C)cc1F (stereo partly drawn) [Example 2g51, 3-((4-(1-((5-(3,5-difluoro-4-(1-((R)-1-(4-(5-fluoro-4-(methylamino)-2-oxopyridin-1(2H)-yl)-1-methyl-1H-pyrrolo[2,3-b]pyridin-2-yl)-ethyl)piperidin-4-yl)benzoyl)-4,5,6,7-tetrahydropyrazolo [1,5-a]pyrazin-2-yl)methyl)-piperidin-4-yl)-3-fluorophen-yl)amino)piperidine-2,6-dione] |  | 51.7
CNc1cc(=O)n(-c2ccnc3c2cc([C@H](C)N2CC=C(c4c(C)cc(C(=O)N5CCC(CN6CCN(c7ncc(NC8CCC(=O)NC8=O)cc7F)CC6)CC5)cc4F)CC2)n3C)cc1F (stereo partly drawn) [Example 2g64, 3-((5-fluoro-6-(4-((1-(3-fluoro-4-(1-((S)-1-(4-(5-fluoro-4-(methylamino)-2-oxopyridin-1(2H)-yl)-1-meth-yl-1H-pyrrolo[2,3-b]pyridin-2-yl)ethyl)-1,2,3,6-tetrahydro-pyridin-4-yl)-5-methylbenzo-yl)piperidin-4-yl)methyl)-piperazin-1-yl)pyridin-3-yl)-amino)piperidine-2,6-dione] |  | 25.7
CNc1ccn(-c2ccnc3c2cc([C@H](C)N2CC=C(c4c(C)cc(C(=O)N5CCC(CN6CCN(c7ccc(NC8CCC(=O)NC8=O)c(OC)c7)CC6)CC5)cc4F)CC2)n3C)c(=O)c1 (stereo partly drawn) [Example 2g125, 3-((4-(4-((1-(3-fluoro-5-meth-yl-4-(1-((S)-1-(1-methyl-4-(4-(methylamino)-2-oxopyridin-1(2H)-yl)-1H-pyrrolo[2,3-b]pyridin-2-yl)ethyl)-1,2,3,6-tetrahydropyridin-4-yl)benzo-yl)piperidin-4-yl)methyl)-piperazin-1-yl)-2-methoxy-phenyl)amino)piperidine-2,6-dione] |  | 12.9
